Source: patent US20240182495A1, “ANTIBACTERIAL COMPOUNDS” (JANSSEN SCIENCES IRELAND UNLIMITED COMPANY, priority 2021, published 2024)
Marks after values point to notes of the source that are not given here.

Tested on: Mycobacterium tuberculosis strain (EH4.0, GFP-expressing; Test 2: H37Rv)
Assay: MIC determination against M. tuberculosis, Test 1 (and/or Test 2)
Type: cell-based
Settings: 7 days incubation, fluorescence; for IC50: Mycobacterium tuberculosis, H37RV, 168 h

Structure (SMILES)	IC50 [nM]	pIC50
CCc1nc2ccc(C)cn2c1C(=O)NCc1ccc(-c2nc3n(n2)CCN(S(=O)(=O)N2CCCC2)C3)cc1 [Compound 48]	25.7	–
CCc1nc2ccc(C3CC3)cn2c1C(=O)NCc1ccc(-c2nc3n(n2)CCN(S(=O)(=O)C(F)(F)F)C3)cc1 [Compound 27]	138	–
CCc1nc2ncc(C)cn2c1C(=O)NCc1ccc(-c2nc3n(n2)CCN(C(C)=O)C3)cc1 [Compound 40]	501	–
CCc1nc2ccc(C)cn2c1C(=O)NCc1ccc(-c2nc3n(n2)CCN(C)C3)cc1 [Compound 56]	74.1	–
CCc1nc2ccc(C(C)C)cn2c1C(=O)NCc1ccc(-c2nc3n(n2)CCN(S(=O)(=O)C(F)(F)F)C3)cc1 [Compound 35]	> 500	–
CCc1nc2ccc(Cl)cn2c1C(=O)NCc1ccc(-c2nc3n(n2)CCN(S(=O)(=O)C(F)(F)F)C3)c(F)c1 [Compound 3]	61.7	–
CCc1nc2nc3c(cn2c1C(=O)NCc1ccc(-c2nc4n(n2)CCN(S(=O)(=O)C(F)(F)F)C4)cc1)CCC3 [Compound 45]	15.1	–
CCc1nc2nc3c(cn2c1C(=O)NCc1ccc(-c2nc4n(n2)CCN(S(=O)(=O)C(F)(F)F)C4)c(F)c1)CCOC3 [Compound 18]	151	–
CCc1nc2c(Cl)c(OC)ccn2c1C(=O)NCc1ccc(-c2nc3n(n2)CCN(S(=O)(=O)C(F)(F)F)C3)c(F)c1 [Compound 11]	447	–
CCc1nc2ncc(C)cn2c1C(=O)NCc1ccc(N2CCC(c3nc4n(n3)CCN(S(=O)(=O)C(F)(F)F)C4)CC2)cc1 [Compound 60]	93.3	–
CCc1nc2ncc(C)cn2c1C(=O)NCc1ccc(-c2nc3n(n2)CCN(S(=O)(=O)C(F)(F)F)C3)s1 [Compound 57]	26.3	–
CCc1nc2nc(NC)c(Cl)cn2c1C(=O)NCc1ccc(-c2nc3n(n2)CCN(S(=O)(=O)C(F)(F)F)C3)c(F)c1 [Compound 13]	–	<6.301
CCc1nc2cc(Cl)c(C)cn2c1C(=O)NCc1cnc(-c2nc3n(n2)CCN(S(=O)(=O)C(F)(F)F)C3)c(F)c1 [Compound 19]	–	6.48
CCc1nc2c(F)cc(Cl)cn2c1C(=O)NCc1ccc(-c2nc3n(n2)CCN(S(=O)(=O)C(F)(F)F)C3)cc1 [Compound 21]	40.7	–
Cc1ccc2nc(C3CC3)c(C(=O)NCc3ccc(-c4nc5n(n4)CCN(S(=O)(=O)C(F)(F)F)C5)cc3)n2c1 [Compound 30]	41.7	–
CCc1nc2nc(C)c(C)cn2c1C(=O)NCc1ccc(-c2nc3n(n2)CCN(S(=O)(=O)C(F)(F)F)C3)cc1 [Compound 33]	12.9	–
CCc1nc2nc(C)c(Cl)cn2c1C(=O)NCc1ccc(-c2nc3n(n2)CCN(S(=O)(=O)C(F)(F)F)C3)cc1 [Compound 8]	–	7.58
CCc1nc2n(c1C(=O)NCc1ccc(-c3nc4n(n3)CCN(S(=O)(=O)C(F)(F)F)C4)cc1)CCN(C)C2 [Compound 65]	331	–
Cc1cn2c(C(=O)NCc3ccc(-c4nc5n(n4)CCN(S(=O)(=O)C(F)(F)F)C5)cc3)c(C)nc2s1 [Compound 32]	60.3	–
CCc1nc2ccc(C)cn2c1C(=O)NCc1ccc(-c2nc3n(n2)CCN(S(=O)(=O)N(C)C)C3)cc1 [Compound 51]	41.7	–
CCc1nc2ncc(C)cn2c1C(=O)NCc1ccc(-c2nc3n(n2)CCNC3)cc1 [Compound 37]	457	–
CCc1nc2ncc(Cl)cn2c1C(=O)NCc1cnc(-c2nc3n(n2)CCN(S(=O)(=O)C(F)(F)F)C3)c(F)c1 [Compound 77]	457	–

Structure (SMILES)	IC50 [nM]	pIC50
CCc1nc2ncc(C)cn2c1C(=O)NCc1ccc(C2CCN(c3nc4n(n3)CCN(S(=O)(=O)C(F)(F)F)C4)C2)cc1 (stereo not shown) [Compound 69]	15.1	–
CCc1nc2cc(C)c(Cl)cn2c1C(=O)NCc1cnc(-c2nc3n(n2)CCN(S(=O)(=O)C(F)(F)F)C3)c(F)c1 [Compound 20]	501	–
CCc1nc2ncc(C)cn2c1C(=O)NCc1ccc(C2CCN(c3nc4n(n3)CCN(S(=O)(=O)C(F)(F)F)C4)CC2)cc1 [Compound 59]	110	–
CCc1nc2n(c1C(=O)NCc1ccc(-c3nc4n(n3)CCN(S(=O)(=O)C(F)(F)F)C4)cc1)CCOC2 [Compound 63]	191	–
CCc1nc2ncc(C)cn2c1C(=O)NCc1cccc(Cc2nc3n(n2)CCN(S(=O)(=O)C(F)(F)F)C3)c1 [Compound 71]	–	<6.3*
CCc1nc2ncc(C)cn2c1C(=O)NCc1nc(-c2nc3n(n2)CCN(S(=O)(=O)C(F)(F)F)C3)cs1 [Compound 75]	> 501	–
CCc1nc2cc(N)c(Cl)cn2c1C(=O)NCc1cnc(-c2nc3n(n2)CCN(S(=O)(=O)C(F)(F)F)C3)c(F)c1 [Compound 78]	> 501	–
CCc1nc2ncc(C)cn2c1C(=O)NCc1ccc(-c2nc3n(n2)CCN(C(=O)C(F)(F)F)C3)cc1 [Compound 43]	282	–
CCc1nc2ncc(C)cn2c1C(=O)NCc1ccc(-c2nc3n(n2)CCN(C)C3)cc1 [Compound 50]	170	–
CCc1nc2ccc(F)cn2c1C(=O)NCc1ccc(-c2nc3n(n2)CCN(S(=O)(=O)C(F)(F)F)C3)cc1 [Compound 22]	44.7	–
CCc1nc2ncc(C)cn2c1C(=O)NCc1cnc(-c2nc3n(n2)CCN(S(=O)(=O)C(F)(F)F)C3)s1 [Compound 74]	309	–
CCc1nc2ccc(C)cn2c1C(=O)NCc1ccc(-c2nc3n(n2)CCN(C(=O)C(F)(F)F)C3)cc1 [Compound 53]	120	–
CCc1nc2ncc(C(C)C)cn2c1C(=O)NCc1ccc(-c2nc3n(n2)CCN(S(=O)(=O)C(F)(F)F)C3)cc1 [Compound 26]	245	–
CCc1nc2ncc(F)cn2c1C(=O)NCc1ccc(-c2nc3n(n2)CCN(S(=O)(=O)C(F)(F)F)C3)c(F)c1 [Compound 17]	195	–
CCc1nc2cc(OC)c(Cl)cn2c1C(=O)NCc1cnc(-c2nc3n(n2)CCN(S(=O)(=O)C(F)(F)F)C3)c(F)c1 [Compound 16]	501	–
CCc1nc2sc(C)cn2c1C(=O)NCc1ccc(-c2nc3n(n2)CCN(S(=O)(=O)C(F)(F)F)C3)cc1 [Compound 36]	16.2	–
CCc1nc2ncc(C)cn2c1C(=O)NCc1ncc(-c2nc3n(n2)CCN(S(=O)(=O)C(F)(F)F)C3)s1 [Compound 64]	132	–
CCc1nc2ncc(C)cn2c1C(=O)NCc1nnc(-c2nc3n(n2)CCN(S(=O)(=O)C(F)(F)F)C3)s1 [Compound 76]	> 501	–
CCc1nc2ccc(C)cn2c1C(=O)NCc1ccc(-c2nc3n(n2)CCNC3)cc1 [Compound 52]	209	–
CCc1nc2ncc(C3CC3)cn2c1C(=O)NCc1ccc(-c2nc3n(n2)CCN(S(=O)(=O)C(F)(F)F)C3)cc1 [Compound 28]	53.7	–
CCc1nc2ccc(C)cn2c1C(=O)NCc1ccc(-c2nc3n(n2)CCN(CCC#N)C3)cc1 [Compound 62]	174	–
Cc1ccc2nc(C)c(C(=O)NCc3ccc(-c4nc5n(n4)CCN(S(=O)(=O)C(F)(F)F)C5)cc3)n2c1 [Compound 34]	12.6	–

Structure (SMILES)	IC50 [nM]	pIC50
CCc1nc2ncc(C)cn2c1C(=O)NCc1ccc(N2CCN(c3nc4n(n3)CCN(S(=O)(=O)C(F)(F)F)C4)CC2)cc1 [Compound 70]	91.2	–
CCc1nc2cc(Cl)c(C)cn2c1C(=O)NCc1ccc(-c2nc3n(n2)CCN(S(=O)(=O)C(F)(F)F)C3)cc1 [Compound 25]	182	–
CCc1nc2n(c1C(=O)NCc1ccc(-c3nc4n(n3)CCN(S(=O)(=O)C(F)(F)F)C4)cc1)CCCC2 [Compound 31]	24	–
Cc1cnc2nc(C)c(C(=O)NCc3ccc(-c4nc5n(n4)CCN(S(=O)(=O)C(F)(F)F)C5)cc3)n2c1 [Compound 29]	21.9	–
CCc1nc2ncc(C)cn2c1C(=O)NCc1ccc(C2CN(c3nc4n(n3)CCN(S(=O)(=O)C(F)(F)F)C4)C2)cc1 [Compound 58]	123	–
CCc1nc2ncc(C)cn2c1C(=O)NCc1ccc(-c2nc3n(n2)CCN(S(=O)(=O)N(C)C)C3)cc1 [Compound 41]	45.7	–
O=C(NCc1ccc(-c2nc3n(n2)CCN(S(=O)(=O)C(F)(F)F)C3)c(F)c1)c1c(C(F)F)nc2ccc(Cl)cn12 [Compound 5]	229	–
CCc1nc2ncc(C)cn2c1C(=O)NC1(c2ccc(-c3nc4n(n3)CCN(S(=O)(=O)C(F)(F)F)C4)cc2)CC1 [Compound 68]	–	<6.3*
CCc1nc2ncc(C)cn2c1C(=O)NCc1ccc(-c2nc3n(n2)CCN(CCOC)C3)cc1 [Compound 54]	132	–
CCc1nc2sc(Cl)cn2c1C(=O)NCc1ccc(-c2nc3n(n2)CCN(S(=O)(=O)C(F)(F)F)C3)cc1 [Compound 39]	123	–
CCc1nc2ccc(C)cn2c1C(=O)NCc1ccc(-c2nc3n(n2)CCN(CCOC)C3)cc1 [Compound 55]	50.1	–
CCc1nc2ncc(C)cn2c1C(=O)NCc1csc(-c2nc3n(n2)CCN(S(=O)(=O)C(F)(F)F)C3)n1 [Compound 73]	> 501	–
CCc1nc2cc(C)c(Cl)cn2c1C(=O)NCc1ccc(-c2nc3n(n2)CCN(S(=O)(=O)C(F)(F)F)C3)c(F)c1 [Compound 9]	363	–
CCc1nc2ccc(C)cn2c1C(=O)NCc1ccc(-c2nc3n(n2)CCN(C(C)=O)C3)cc1 [Compound 46]	282	–
CCc1nc2ncc(C)cn2c1C(=O)NCc1cccc(-c2nc3n(n2)CCN(S(=O)(=O)C(F)(F)F)C3)c1 [Compound 67]	162	–
CCc1nc2ncc(Cl)cn2c1C(=O)NCc1ccc(-c2nc3n(n2)CCN(S(=O)(=O)C(F)(F)F)C3)c(F)c1 [Compound 4]	12.6	–
CCc1nc2cc(C)c(C)cn2c1C(=O)NCc1ccc(-c2nc3n(n2)CCN(S(=O)(=O)C(F)(F)F)C3)cc1 [Compound 23]	32.4	–
Cc1nc2sc(Cl)cn2c1C(=O)NCc1ccc(-c2nc3n(n2)CCN(S(=O)(=O)C(F)(F)F)C3)cc1 [Compound 38]	282	–
CCc1nc2ncc(C)cn2c1C(=O)NCc1ccc(-c2nc3n(n2)CCN(CCC#N)C3)cc1 [Compound 61]	389	–
CCc1nc2ncc(C)cn2c1C(=O)NCc1coc(-c2nc3n(n2)CCN(S(=O)(=O)C(F)(F)F)C3)n1 [Compound 72]	–	<6.3
